The text below walks through data of paper PMC9653733, “Characterization of a Potent, Selective, and Safe Inhibitor, Ac15(Az8)2, in Reversing Multidrug Resistance Mediated by Breast Cancer Resistance Protein (BCRP/ABCG2)” (International Journal of Molecular Sciences, 2022).

In data set [1] the target is T1, BCRP (S1M180 cells) (Homo sapiens, UniProt Q9UNQ0, R482G).
T1 construct: endogenous in cells; host or cells: S1M180 (human colon carcinoma, mitoxantrone-selected)
T1 sequence (Q9UNQ0 1-655 R482G): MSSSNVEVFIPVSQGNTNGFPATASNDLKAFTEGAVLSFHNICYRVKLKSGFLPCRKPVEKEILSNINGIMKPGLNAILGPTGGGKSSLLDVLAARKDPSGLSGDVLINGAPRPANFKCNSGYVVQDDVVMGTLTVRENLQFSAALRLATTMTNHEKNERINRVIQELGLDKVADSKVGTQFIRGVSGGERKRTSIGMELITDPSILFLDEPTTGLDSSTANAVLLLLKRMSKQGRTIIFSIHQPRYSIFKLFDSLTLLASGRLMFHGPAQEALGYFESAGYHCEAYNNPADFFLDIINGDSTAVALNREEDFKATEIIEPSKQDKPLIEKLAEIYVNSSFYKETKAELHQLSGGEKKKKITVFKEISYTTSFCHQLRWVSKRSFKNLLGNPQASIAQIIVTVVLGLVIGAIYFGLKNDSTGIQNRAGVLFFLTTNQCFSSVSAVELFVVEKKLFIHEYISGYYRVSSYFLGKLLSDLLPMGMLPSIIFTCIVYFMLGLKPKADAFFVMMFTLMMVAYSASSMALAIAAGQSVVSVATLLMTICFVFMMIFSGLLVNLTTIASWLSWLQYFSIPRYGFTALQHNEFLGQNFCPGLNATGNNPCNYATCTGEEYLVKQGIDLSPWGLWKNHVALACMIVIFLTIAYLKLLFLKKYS
In words: Drug accumulation assay in S1M180. The note with it: 20 µM DOX, 1 h; p < 0.001. Format: cell-based. How it is done: Figure 2 Effect of Ac15(Az8)2 on intracellular accumulation of BCRP-substrates in S1 and S1M180 cells. Cells were pre-treated with 0.1% DMSO, 100 nM, or 1000 nM Ac15(Az8)2 and then incubated with BCRP substrates. (A) Topotecan accumulation. (B) DOX accumulation. The intracellular level of drug after treatment was normalized to that of S1 cells after incubating with 0.1% DMSO. Student unpaired two-tailed t-test was conducted as indicated (** p < 0.01, *** p < 0.001). (C) To measure DOX efflux, S1M180 cells were pre-incubated with medium containing 20 μM DOX for 1 h at 37 °C. Cells were then washed and further incubated with or without 1 µM of Ac15(Az8)2. At 0, 5, 10, 30, 60, 120, and 180 min, the cells were harvested to measure the intracellular DOX level. (D) To determine intracellular Ac15(Az8)2 concentration, 1 × 10^7 cells were incubated with 1 µM of Ac15(Az8)2 at 37 °C for 2 h. Cells were then washed with ice-cold PBS. To the cell pellet, acetonitrile was added to lyse the cells, and the supernatant was saved for Ac15(Az8)2 determination using UPLC–MS/MS.
Briefly, 1 × 10^6 cells of S1 and S1M180 cells were pre-incubated with 100 nM or 1000 nM Ac15(Az8)2 for 2 h and followed by 50 µM of topotecan or 20 µM of DOX for 1-h incubation. DMSO at 0.1% was used as a negative control. After incubation, the cells were spun down and washed with cold PBS, pH7.4 for 2 times and lysed with 100 μL of lysis buffer (0.75 M HCl, 0.2% Triton-X100 in isopropanol) with vigorous vortex. The lysate was further incubated at 37 °C for 20 min. After incubation, the lysate was spun down, and 100 μL of supernatant was saved and seeded into a black 96-well microtiter plate. The fluorescence level of DOX was determined by a fluorescence microplate reader (BMG Technologies) using excitation and an emission wavelength pair of 460 nm and 610 nm.

The subject of data set [2] is S1M180 cells. In words: Cytotoxicity of anticancer drugs in S1M180 (0.1% DMSO). Format: cell-based, human. The protocol:
In total, 6500 cells of S1M180 or MCF7-MX100 were incubated with various doses of topotecan or DOX and modulators. The final volume in each well of 96-well plates was 200 µL. The plates were then incubated for 5 days at 37 °C. The CellTiter 96 AQueous Assay (Promega) was used to measure cell proliferation. According to the manufacturer’s instructions, MTS (2 mg/mL) and PMS (0.92 mg/mL) were mixed in a ratio of 20:1. An aliquot (10 μL) of the freshly prepared MTS/PMS mixture was added into each well, and the plate was incubated for 2 h at 37 °C. Optical absorbance at 490 nm was then recorded with microplate absorbance reader (Bio-Rad). IC50 values were calculated from the dose-response curves of MTS assays (Prism 4.0).

For data set [3], the system named is S1 cells. In words: Cytotoxicity of anticancer drugs in parental S1 (0.1% DMSO). It is filed as cell-based, human.
For data set [4], the system named is MRP1 (2008/MRP1 cells). The conditions noted are these: mean ± S.D.; ref [42]; read-out: EC50 needed for reversing MRP1-mediated DOX resistance, 2008/MRP1; cited from earlier work.
Data set [5] has as its system L929. The conditions noted are these: normal mouse fibroblast cells; mean ± S.D.; ref [42]; read-out: IC50 towards L929; cited from earlier work.
Data set [6] deals with BCRP (MCF7-MX100 cells). The note with it: concentration reducing IC50 of anticancer drug by half; mean ± S.D.; ref [42]; read-out: EC50 needed for reversing BCRP-mediated topotecan resistance, MCF7-MX100; cited from earlier work.

“And” between values parts separate entries of the source, which are not always exact repeats. Equal values may be shown once.

What is called IC50 is the concentration needed to halve the response being measured.

Regarding `COc1cccc2c1C(=O)c1c(O)c3c(c(O)c1C2=O)C[C@@](O)(C(=O)CO)C[C@@H]3O[C@H]1C[C@H](N)[C@H](O)[C@H](C)O1` [DOX, doxorubicin], the “DOX accumulation in S1M180, fold less than parental S1” value in data set [1] is approximately 4.6 fold. Also, the IC50 in data set [2] (Homo sapiens, S1-M1-80, S1M180 + 0.1% DMSO, mean ± S.D., n = 3, read-out: IC50 of DOX) turned out to be 13.4 µM; in data set [3] (Homo sapiens, S1 + 0.1% DMSO, mean ± S.D., n = 3, read-out: IC50 of DOX), 0.1 ± 0.02 µM. The “RF (Relative Fold), DOX” value in data set [2] (S1M180 + 0.1% DMSO (reference)) is 1.0. Besides, in data set [3] (S1 + 0.1% DMSO vs S1M180 + 0.1% DMSO), the “RF (Relative Fold), DOX: resistance of S1M180 compared to parental S1” value came out at 133.7.

Regarding `COc1ccc2c3c([nH]c2c1)[C@H](CC(C)C)N1C(=O)[C@H](CCC(=O)OC(C)(C)C)NC(=O)[C@@H]1C3` [Ko143, reference compound], the EC50 in data set [4] was 1.95 ± 0.354 µM; in data set [6] it was […]. Moreover, the IC50 in data set [5] is 29 µM and 29.2 µM.
